# Experiments:
# BRAF = BRAF (Homo sapiens (Human), UniProt P15056); assay: Z′-LYTE kinase inhibition assay (Invitrogen), BRAF; format: biochemical; settings: 1 μM compound, Z′-LYTE method; read-out: % inhibition at 1 μM against BRAF
# Method: Inhibitory activities Inhibitory activities of compounds against BRAF, and BRAF V600E were measured by Invitrogen using Z′-LYTE® Method as briefly described in the following. 4× Test compounds are dissolved in 1% DMSO. […] ATP solutions are diluted to a 4×ATP working concentration in Kinase Buffer (50 mM HEPES pH 7.5, 0.01% BRIJ-35, 10 mM MgCl2, 1 mM EGTA). Reaction started by 30-second shaking of mixture consisting of 2.5 μL 4× test compound, […] and 2.5 μL 4×ATP Solution on Bar-coded Corning, low volume NBS, black 384-well plate (Corning Cat. #3676). Then the mixture was incubated for 60-minute at room temperature for the kinase reaction, followed by addition of 5 μL of a 1:1024 dilution of development reagent A and 30-second plate shake. The mixture was then incubated for another 60-minute at room temperature for development reaction. Fluorescence was read by plate reader. IC50 was calculated by plotting the concentration of compound vs the percentage of inhibition in treated wells using GraphPad Prism 5.
# KDR (VEGFR2) = KDR (VEGFR2) (Homo sapiens (Human), UniProt P35968); assay: Z′-LYTE kinase inhibition assay (Invitrogen), KDR; format: biochemical; settings: Z′-LYTE method; for inhibition at 1 µM: 1 μM compound, read-out: % inhibition at 1 μM against KDR; for IC50: read-out: IC50 against KDR
# KDR (VEGFR2), sequence (P35968 20-1356): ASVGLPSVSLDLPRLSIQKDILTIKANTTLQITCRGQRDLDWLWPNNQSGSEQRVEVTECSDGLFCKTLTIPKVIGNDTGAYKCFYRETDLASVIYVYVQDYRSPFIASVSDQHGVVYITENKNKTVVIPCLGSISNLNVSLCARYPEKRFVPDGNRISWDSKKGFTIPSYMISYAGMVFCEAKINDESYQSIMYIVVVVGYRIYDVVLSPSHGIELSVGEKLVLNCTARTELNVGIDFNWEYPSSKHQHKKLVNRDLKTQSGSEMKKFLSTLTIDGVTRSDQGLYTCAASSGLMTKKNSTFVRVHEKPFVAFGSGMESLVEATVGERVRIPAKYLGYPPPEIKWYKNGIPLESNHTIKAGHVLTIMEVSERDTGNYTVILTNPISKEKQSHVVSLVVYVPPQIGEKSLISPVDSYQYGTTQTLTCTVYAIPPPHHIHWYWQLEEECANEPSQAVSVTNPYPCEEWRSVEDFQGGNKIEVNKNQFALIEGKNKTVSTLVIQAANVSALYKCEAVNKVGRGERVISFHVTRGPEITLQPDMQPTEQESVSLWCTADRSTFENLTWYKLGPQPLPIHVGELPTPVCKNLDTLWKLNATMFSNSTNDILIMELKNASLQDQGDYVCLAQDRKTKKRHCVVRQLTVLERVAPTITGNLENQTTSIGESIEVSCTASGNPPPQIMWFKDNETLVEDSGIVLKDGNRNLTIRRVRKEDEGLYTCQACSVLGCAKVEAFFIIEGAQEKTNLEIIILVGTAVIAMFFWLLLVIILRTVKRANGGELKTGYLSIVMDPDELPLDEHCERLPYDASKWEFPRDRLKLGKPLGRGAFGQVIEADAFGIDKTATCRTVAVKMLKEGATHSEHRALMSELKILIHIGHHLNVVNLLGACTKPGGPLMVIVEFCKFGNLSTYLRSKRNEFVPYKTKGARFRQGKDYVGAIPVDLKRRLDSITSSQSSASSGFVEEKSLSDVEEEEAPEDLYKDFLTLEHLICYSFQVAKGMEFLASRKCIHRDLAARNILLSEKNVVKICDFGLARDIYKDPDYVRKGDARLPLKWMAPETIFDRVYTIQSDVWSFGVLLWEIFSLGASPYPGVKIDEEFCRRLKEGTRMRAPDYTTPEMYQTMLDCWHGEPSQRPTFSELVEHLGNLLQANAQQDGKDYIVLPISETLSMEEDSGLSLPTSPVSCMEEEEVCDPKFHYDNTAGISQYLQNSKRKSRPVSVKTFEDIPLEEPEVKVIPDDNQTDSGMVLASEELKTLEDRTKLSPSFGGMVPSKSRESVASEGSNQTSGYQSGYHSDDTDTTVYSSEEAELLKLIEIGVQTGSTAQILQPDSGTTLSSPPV
# Method in brief: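 Z′-LYTE FRET assay: 10 μL reactions with 0.5–11.7 ng KDR and 2 μM Tyr 01 peptide in 50 mM HEPES pH 7.5, 10 mM MgCl2, 1 mM EGTA, 0.01% BRIJ-35, 1 h at room temperature. Development Reagent B (1:256) added for 60 min, fluorescence read; IC50 from concentration–inhibition curves.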
# A549 cells = assay: Inhibition of cancer cell growth, MTT assay, A549; format: cell-based; settings: Homo sapiens, A549, 72 h exposure
# Method in brief: (§1)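 Cells grown in RPMI 1640 with 10% FBS were seeded at about 4000 cells/well, left 24 h, then exposed to compound for 72 h (1% DMSO final). MTT absorbance at 570 nm was compared with viable cells at time of addition to give growth inhibition; IC50 from concentration–inhibition plots, triplicates.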
# BRAF V600E = BRAF V600E (Homo sapiens (Human), UniProt P15056, V600E); assay: Z′-LYTE kinase inhibition assay (Invitrogen), BRAF V600E; format: biochemical; settings: Z′-LYTE method; for inhibition at 1 µM: 1 μM compound, read-out: % inhibition at 1 μM against BRAF V600E; for IC50: read-out: IC50 against BRAF V600E
# BRAF V600E, sequence (P15056 whole entry V600E): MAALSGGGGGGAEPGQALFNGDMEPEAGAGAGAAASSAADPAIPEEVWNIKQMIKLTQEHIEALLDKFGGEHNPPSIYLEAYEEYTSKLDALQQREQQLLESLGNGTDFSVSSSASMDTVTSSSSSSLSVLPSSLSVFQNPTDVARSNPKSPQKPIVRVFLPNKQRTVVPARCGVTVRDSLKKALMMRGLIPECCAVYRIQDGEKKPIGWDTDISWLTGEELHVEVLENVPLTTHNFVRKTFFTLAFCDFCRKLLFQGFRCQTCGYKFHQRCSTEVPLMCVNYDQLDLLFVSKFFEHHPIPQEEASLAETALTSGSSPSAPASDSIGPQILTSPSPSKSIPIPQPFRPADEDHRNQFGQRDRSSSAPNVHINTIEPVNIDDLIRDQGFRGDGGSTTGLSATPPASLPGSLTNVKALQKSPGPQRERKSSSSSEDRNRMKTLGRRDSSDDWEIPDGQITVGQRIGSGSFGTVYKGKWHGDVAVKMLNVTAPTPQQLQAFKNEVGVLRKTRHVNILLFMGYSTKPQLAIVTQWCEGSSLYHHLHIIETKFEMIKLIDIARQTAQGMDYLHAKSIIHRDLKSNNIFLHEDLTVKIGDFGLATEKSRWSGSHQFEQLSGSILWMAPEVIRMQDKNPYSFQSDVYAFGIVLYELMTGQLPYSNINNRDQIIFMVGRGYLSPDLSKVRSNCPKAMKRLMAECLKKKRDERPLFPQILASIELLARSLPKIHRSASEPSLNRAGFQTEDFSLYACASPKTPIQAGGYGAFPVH
# Method in brief: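 FRET-based Z′-LYTE peptide phosphorylation format in 50 mM HEPES pH 7.5, 0.01% BRIJ-35, 10 mM MgCl2, 1 mM EGTA with ATP. Kinase reaction 60 min at room temperature, then protease development step 60 min at room temperature before fluorescence read. IC50 from compound concentration versus percent inhibition.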
# A375 cells = assay: Inhibition of cancer cell growth, MTT assay, A375; format: cell-based; settings: Homo sapiens, A-375, 72 h exposure
# Method in brief: as §1
# BRAF, sequence (P15056 whole entry): as the sequence (P15056 whole entry V600E) above, with E600V counted along it
inhibition at 1 µM (BRAF),inhibition at 1 µM (KDR (VEGFR2)),IC50 (KDR (VEGFR2)),IC50 (A549 cells),inhibition at 1 µM (BRAF V600E),IC50 (BRAF V600E),IC50 (A375 cells),SMILES
< 70%,70 to 89%,< 100 nM,< 2000 nM,70 to 89%,> 100 nM,< 1000 nM,"O=C(Nc1cccc(C(=O)c2ccc3ncc(N4CCCC4)nc3c2)c1)c1cccc(F)c1 [Compound C121, 3-fluoro-N-(3-(3-(pyrrolidin-1-yl)quinoxaline-6-carbonyl)phenyl)benzamide]"
70 to 89%,70 to 89%,< 100 nM,2000 to 5000 nM,> 89%,< 100 nM,< 1000 nM,"O=C(Nc1cccc(F)c1)Nc1ccc(F)c(C(=O)c2ccc3ncc(N4CCOCC4)nc3c2)c1 [Compound C035, 1-(4-fluoro-3-(3-morpholinoquinoxaline-6-carbonyl)phenyl)-3-(3-fluorophenyl)urea]"
< 70%,70 to 89%,,< 2000 nM,70 to 89%,,< 1000 nM,"O=C(Nc1cc(F)c(F)c(C(=O)c2ccc3ncc(N4CCOCC4)nc3c2)c1)Nc1ccc(Cl)c(C(F)(F)F)c1 [Compound C041, 1-(4-chloro-3-(trifluoromethyl)phenyl)-3-(3,4-difluoro-5-(3-morpholinoquinoxaline-6-carbonyl)phenyl)urea]"
> 89%,70 to 89%,,> 5000 nM,> 89%,,< 1000 nM,"O=C(Nc1cncc(Cl)c1)Nc1ccc(F)c(C(=O)c2ccc3ncc(N4CCOCC4)nc3c2)c1 [Compound C081, 1-(5-chloropyridin-3-yl)-3-(4-fluoro-3-(3-morpholinoquinoxaline-6-carbonyl)phenyl)urea]"
< 70%,> 89%,< 100 nM,> 5000 nM,> 89%,< 100 nM,> 5000 nM,"O=C(Nc1cccc(C(=O)c2ccc3ncc(-c4cccnc4)nc3c2)c1)c1ccc(C(F)(F)F)c(Cl)c1 [Compound C124, 3-chloro-N-(3-(3-(pyridin-3-yl)quinoxaline-6-carbonyl)phenyl)-4-(trifluoromethyl)benzamide]"
< 70%,> 89%,,2000 to 5000 nM,70 to 89%,,< 1000 nM,"O=C(Nc1cccc(C(=O)c2ccc3ncc(-c4cn[nH]c4)nc3c2)c1)c1ccc(Cl)c(C(F)(F)F)c1 [Compound C133, N-(3-(3-(1H-pyrazol-4-yl)quinoxaline-6-carbonyl)phenyl)-4-chloro-3-(trifluoromethyl)benzamide]"
70 to 89%,> 89%,< 100 nM,< 2000 nM,> 89%,< 100 nM,< 1000 nM,"Cn1cc(-c2cnc3ccc(C(=O)c4cccc(NC(=O)Nc5ccc(Cl)c(C(F)(F)F)c5)c4)cc3n2)cn1 [Compound C028, 1-(4-chloro-3-(trifluoromethyl)phenyl)-3-(3-(3-(1-methyl-1H-pyrazol-4-yl)quinoxaline-6-carbonyl)phenyl)urea]"
< 70%,< 70%,,2000 to 5000 nM,70 to 89%,,> 5000 nM,"O=C(Nc1cc(F)c(F)c(C(=O)c2ccc3nccnc3c2)c1F)c1cccc(F)c1 [Compound C108, 3-fluoro-N-(2,4,5-trifluoro-3-(quinoxaline-6-carbonyl)phenyl)benzamide]"
70 to 89%,> 89%,< 100 nM,> 5000 nM,> 89%,< 100 nM,1000 to 5000 nM,"O=C(Nc1cccc(C(=O)c2ccc3ncc(-c4cccnc4)nc3c2)c1)Nc1ccc(Cl)c(C(F)(F)F)c1 [Compound C022, 1-(4-chloro-3-(trifluoromethyl)phenyl)-3-(3-(3-(pyridin-3-yl)quinoxaline-6-carbonyl)phenyl)urea]"
< 70%,> 89%,< 100 nM,< 2000 nM,> 89%,< 100 nM,< 1000 nM,"O=C(Nc1ccc(F)c(C(=O)c2ccc3ncc(N4CCOCC4)nc3c2)c1)c1cccc(C(F)(F)F)c1 [Compound C141, N-(4-fluoro-3-(3-morpholinoquinoxaline-6-carbonyl)phenyl)-3-(trifluoromethyl)benzamide]"
70 to 89%,> 89%,< 100 nM,2000 to 5000 nM,> 89%,< 100 nM,< 1000 nM,"O=C(Nc1cccc(C(=O)c2ccc3ncc(N4CCOCC4)nc3c2)c1)c1cccc(C(F)(F)F)c1 [Compound C119, N-(3-(3-morpholinoquinoxaline-6-carbonyl)phenyl)-3-(trifluoromethyl)benzamide]"
70 to 89%,> 89%,,< 2000 nM,> 89%,,< 1000 nM,"O=C(Nc1ccc(F)c(F)c1)Nc1ccc(F)c(C(=O)c2ccc3ncc(N4CCOCC4)nc3c2)c1 [Compound C046, 1-(3,4-difluorophenyl)-3-(4-fluoro-3-(3-morphlinoquinoxaline-6-carbonyl)phenyl)urea]"
70 to 89%,> 89%,< 100 nM,< 2000 nM,> 89%,< 100 nM,< 1000 nM,"O=C(Nc1cccc(C(=O)c2ccc3ncc(N4CCOCC4)nc3c2)c1)Nc1ccc(Cl)c(C(F)(F)F)c1 [Compound C018, 1-(4-chloro-3-(trifluoromethyl)phenyl)-3-(3-(3-morpholinoquinoxaline-6-carbonyl)phenyl)urea]"
70 to 89%,> 89%,< 100 nM,< 2000 nM,> 89%,< 100 nM,< 1000 nM,"O=C(Nc1cccc(C(=O)c2ccc3ncc(N4CCOCC4)nc3c2)c1)Nc1cccc(C(F)(F)F)c1 [Compound C017, 1-(3-(3-morpholinoquinoxaline-6-carbonyl)phenyl)-3-(3-(trifluoromethyl)phenyl)urea]"
70 to 89%,70 to 89%,,2000 to 5000 nM,> 89%,,< 1000 nM,"O=C(Nc1cccc(Cl)c1)Nc1cccc(C(=O)c2ccc3nccnc3c2)c1 [Compound C003, 1-(3-chlorophenyl)-3-(3-(quinoxaline-6-carbonyl)phenyl)urea]"
< 70%,< 70%,,> 5000 nM,< 70%,,> 5000 nM,"O=C(Nc1ccc(F)c(C(=O)c2ccc3nccnc3c2)c1Cl)c1ccc(Cl)c(C(F)(F)F)c1 [Compound C112, 4-chloro-N-(2-chloro-4-fluoro-3-(quinoxaline-6-carbonyl)phenyl)-3-(trifluoromethyl)benzamide]"
< 70%,70 to 89%,> 100 nM,2000 to 5000 nM,70 to 89%,> 100 nM,> 5000 nM,"O=C(Nc1cc(F)c(F)c(C(=O)c2ccc3nccnc3c2)c1F)c1cccc(C(F)(F)F)c1 [Compound C109, N-(2,4,5-trifluoro-3-(quinoxaline-6-carbonyl)phenyl)-3-(trifluoromethyl)benzamide]"
70 to 89%,> 89%,,> 5000 nM,> 89%,,1000 to 5000 nM,"O=C(Nc1cccc(C(=O)c2ccc3ncc(N4CCCC4)nc3c2)c1)Nc1cccc(C(F)(F)F)c1 [Compound C020, 1-(3-(3-(pyrrolidin-1-yl)quinoxaline-6-carbonyl)phenyl)-3-(3-(trifluoromethyl)phenyl)urea]"
70 to 89%,70 to 89%,< 100 nM,2000 to 5000 nM,> 89%,,1000 to 5000 nM,"COc1cnc2ccc(C(=O)c3cc(NC(=O)Nc4ccc(F)cc4)ccc3F)cc2n1 [Compound C080, 1-(4-fluoro-3-(3-methoxyquinoxaline-6-carbonyl)phenyl)-3-(4-fluorophenyl)urea]"

# Reference: patent US10759766B2, “Certain chemical entities, compositions, and methods” (NeuPharma, Inc., priority 2011, dated 2020)
